From ChEMBL document CHEMBL1134047, “Binding of a cyclic BIV beta-Tat peptide with its TAR RNA construct” (Bioorg Med Chem Lett, 2001)

What follows are compounds tested on Nucleic Acid (assay: Binding affinity to the ([…]) BIV TAR RNA target was determined by fluorescence binding study).
Format: nucleic-acid assay, Bos taurus

Row | SMILES | Kd [nM]
1 | CC[C@H](C)[C@H](NC(=O)[C@H](CCCN=C(N)N)NC(=O)[C@H](CCCN=C(N)N)NC(=O)CNC(=O)[C@H](CCCCN)NC(=O)CNC(=O)[C@H](CCCN=C(N)N)NC(=O)[C@@H](NC(=O)CNC(=O)[C@H](CCCN=C(N)N)NC(=O)[C@H]1CCCN1C(=O)[C@H](CCCN=C(N)N)NC(=O)[C@H]1CCCN1C(=O)CNC(=O)[C@H](CO)NC(=O)[C@@H](N)CS)[C@@H](C)O)C(=O)N[C@@H](CCCN=C(N)N)C(N)=O | 1.28
2 | CC[C@H](C)[C@@H]1NC(=O)[C@@H](CCCNC(=N)N)NC(=O)[C@H](CCCNC(=N)N)NC(=O)CNC(=O)[C@H](CCCCN)NC(=O)CNC(=O)[C@H](CCCNC(=N)N)NC(=O)[C@@H]([C@@H](C)O)NC(=O)CNC(=O)[C@@H](CCCNC(=N)N)NC(=O)[C@@H]2CCCN2C(=O)[C@@H](CCCNC(=N)N)NC(=O)[C@H]2CCCN2C(=O)CNC(=O)[C@@H](CO)NC(=O)[C@@H](N)CSSC[C@@H](C(=O)O)NC(=O)[C@H](CCCNC(=N)N)NC(=O)[C@@H](CCCNC(=N)N)NC1=O | 0.273
3 | CC[C@H](C)[C@H](NC(=O)[C@H](CCCNC(=N)N)NC(=O)[C@H](CCCNC(=N)N)NC(=O)CNC(=O)[C@H](CCCCN)NC(=O)CNC(=O)[C@H](CCCNC(=N)N)NC(=O)[C@@H](NC(=O)CNC(=O)[C@H](CCCNC(=N)N)NC(=O)[C@H]1CCCN1C(=O)[C@H](CCCNC(=N)N)NC(=O)[C@H]1CCCN1C(=O)CNC(=O)[C@@H](N)CO)[C@@H](C)O)C(=O)N[C@@H](CCCNC(=N)N)C(=O)N[C@@H](CCCNC(=N)N)C(=O)O | 1.32
